Measurements from paper PMC10247784, “Physiological activation of human and mouse bitter taste receptors by bile acids” (Communications Biology, 2023).
Values joined by “and” are separate entries in the source; they are usually repeats but may differ in a detail not shown here. Equal entries are not always repeated.

What was measured:
human TAS2R46 = target: T1, human TAS2R46 (Homo sapiens, UniProt P59540); assay: Calcium imaging assay (FLIPR), HEK293T-Gα16gust44 cells transfected with human TAS2R46; format: cell-based
T1 construct: expressed in transfected cells; host or cells: HEK293T-Gα16gust44
T1 sequence (P59540 1-309): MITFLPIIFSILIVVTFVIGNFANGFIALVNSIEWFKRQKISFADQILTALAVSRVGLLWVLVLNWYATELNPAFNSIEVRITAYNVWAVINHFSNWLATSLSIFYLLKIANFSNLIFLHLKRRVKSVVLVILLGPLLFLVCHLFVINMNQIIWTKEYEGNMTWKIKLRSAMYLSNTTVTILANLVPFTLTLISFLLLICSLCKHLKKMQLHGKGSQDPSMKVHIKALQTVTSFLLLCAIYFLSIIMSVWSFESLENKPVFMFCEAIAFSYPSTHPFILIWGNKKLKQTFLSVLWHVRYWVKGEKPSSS
Description: (§1) This set of bile acids was chosen because of their commercial availability in high purities, their diversity within the class of bile acids and their previous detection and quantitation in human blood. Stock solutions were prepared in DMSO.
(§2) As basal growth medium for the HEK293T-Gα16gust44 cell line[17],[59] served Dulbecco’s modified eagle medium (DMEM) (Thermo Fisher Scientific, Darmstadt, Germany) supplemented with 10 % fetal bovine serum (Sigma-Aldrich, Steinheim, Germany), 2 mM L-glutamine (Sigma-Aldrich, Steinheim, Germany), 100 units/ml penicillin (Sigma Aldrich, Steinheim, Germany) and 100 µg/ml streptomycin (Sigma Aldrich, Steinheim, Germany). Growth conditions were 37 °C, 5 % CO2 and saturated air-humidity[60].
(§3) HEK293T-Gα16gust44 cells were seeded on poly-D-lysine (10 µg/ml) coated 96-well plates to reach a confluence of 40-60 % the next day. For transient transfection 150 ng of plasmid DNA containing the receptor of interest and 0.3 µl lipofectamine 2000 (Thermo Fisher Scientific, Darmstadt, Germany) per well were used and transfection took place according to the manual of lipofectamine 2000. […] The empty vector DNA (mock) was transfected as negative control[14],[41].
(§4) Cells were loaded using the calcium-sensitive fluorescent dye Fluo-4-AM (Abcam, Cambridge, Great Britain) in the presence of 2.5 mM probenecid (Sigma-Aldrich, Steinheim, Germany) the day after transfection[13],[41]. 1 h after loading, cells were washed with C1 buffer using a BioTek Cell Washer, incubated in the dark for half an hour and washed again. For automated agonist application and measurement of fluorescence changes, a FLIPR^TETRA device (Molecular Devices, San José, United States) was used. Viability of cells was tested by application of 100 nM Somatostatin 14 (Bachem, Bubendorf, Switzerland)[42].
(§5) Measured data were negative control corrected by subtracting the signal of the mock-transfected cells and exported to Microsoft Excel using the FLIPR software ScreenWorks 4.2. In Microsoft Excel software, standardization of maximum fluorescence intensities to the basal fluorescence and normalization to the buffer-only control was done to calculate the relative fluorescence changes (ΔF/F).
(§6) Initial screening experiments performed in duplicate wells were confirmed by at least one replication and representative traces were selected for display. All dose-response relationships were determined by three independent experiments (biological replicates) performed in duplicates (technical replicates). Threshold concentrations, defined as lowest substance concentrations leading to statistically significant elevated fluorescence changes in receptor-transfected cells compared with empty vector-transfected cells, were determined using SigmaPlot with Student’s t-test to evaluate statistical significance (p < 0.01).

[1] = test system: HEK293T-Gα16gust44 cells transfected with empty vector (mock); assay: Calcium imaging assay (FLIPR), empty vector control (mock); format: cell-based
Description: as §1, §2, §3, §4, §5, §6

C[C@H](CCC(=O)NCC(=O)O)[C@H]1CC[C@H]2[C@@H]3[C@H](O)C[C@@H]4C[C@H](O)CC[C@]4(C)[C@H]3C[C@H](O)[C@]12C [Glycocholic Acid, glycocholic acid]
Efficacy = maximal amplitude (ΔF/F) (human TAS2R46; TAS2R46, bile acids, mean): 0.0591
Efficacy (maximal amplitude ΔF/F), individual data points (human TAS2R46; TAS2R46, bile acids, single replicates, listed as GCA): 0.05097 and 0.06295 and 0.06339
Δ F/F (human TAS2R46; TAS2R46, conc. 0,01 mM): 0.003139
Δ F/F (human TAS2R46; TAS2R46, conc. 0,1 mM): 0.004292
Δ F/F (human TAS2R46; TAS2R46, conc. 0,03 mM): 0.007529
Δ F/F (human TAS2R46; TAS2R46, conc. 0,3 mM): 0.01216
Δ F/F (human TAS2R46; TAS2R46, conc. 0,001 mM): 0.002929
Δ F/F (human TAS2R46; TAS2R46, conc. 1 mM): 0.0591
Δ F/F (human TAS2R46; TAS2R46, conc. 0,003 mM): 0.003879
Activation threshold concentration TAS2R46 (human TAS2R46; lowest concentration with significantly increased fluorescence vs empty vector (p < 0.01)): 1000 µM
Δ F/F ([1]; Conc. 0,01 mM, Mock (sheet TAS2R39)): -0.01548
Δ F/F ([1]; Conc. 0,1 mM, Mock (sheet TAS2R39)): -0.02609
Δ F/F ([1]; Conc. 0,03 mM, Mock (sheet TAS2R39)): -0.02235
Δ F/F ([1]; Conc. 0,3 mM, Mock (sheet TAS2R39)): -0.04919
Δ F/F ([1]; Conc. 0,001 mM, Mock (sheet TAS2R39)): -0.01811
Δ F/F ([1]; Conc. 1 mM, Mock (sheet TAS2R39)): -0.07251
Δ F/F ([1]; Conc. 0,003 mM, Mock (sheet TAS2R39)): -0.02014
Δ F/F ([1]; Mock (sheet Tas2r123), conc. 0,01 mM): -0.001257
Δ F/F ([1]; Mock (sheet Tas2r123), conc. 0,1 mM): -0.001605
Δ F/F ([1]; Mock (sheet Tas2r123), conc. 0,03 mM): -0.001376
Δ F/F ([1]; Mock (sheet Tas2r123), conc. 0,3 mM): 0.0005119
Δ F/F ([1]; Mock (sheet Tas2r123), conc. 0,001 mM): -0.001339
Δ F/F ([1]; Mock (sheet Tas2r123), conc. 0,003 mM): -0.001948
Δ F/F ([1]; Mock (sheet Tas2r126), conc. 0,01 mM): -0.0096
Δ F/F ([1]; Mock (sheet Tas2r126), conc. 0,1 mM): -0.02403
Δ F/F ([1]; Mock (sheet Tas2r126), conc. 0,03 mM): -0.01217
Δ F/F ([1]; Mock (sheet Tas2r126), conc. 0,3 mM): -0.03338
Δ F/F ([1]; Mock (sheet Tas2r126), conc. 0,001 mM): -0.01229
Δ F/F ([1]; Mock (sheet Tas2r126), conc. 1 mM): -0.06654
Δ F/F ([1]; Mock (sheet Tas2r126), conc. 0,003 mM): -0.01228
Δ F/F ([1]; Mock (sheet Tas2r144), conc. 0,01 mM): 0.0008421
Δ F/F ([1]; Mock (sheet Tas2r144), conc. 0,1 mM): 0.001148
Δ F/F ([1]; Mock (sheet Tas2r144), conc. 0,03 mM): -3.983e-5
Δ F/F ([1]; Mock (sheet Tas2r144), conc. 0,3 mM): 0.0006824
Δ F/F ([1]; Mock (sheet Tas2r144), conc. 0,003 mM): 0.002307
Δ F/F ([1]; Mock, sheet TAS2R4, conc. 0,01 mM): -0.0004971
Δ F/F ([1]; Mock, sheet TAS2R4, conc. 0,1 mM): -0.0007383
Δ F/F ([1]; Mock, sheet TAS2R4, conc. 0,03 mM): -0.0008538
Δ F/F ([1]; Mock, sheet TAS2R4, conc. 0,3 mM): 3.213e-5
Δ F/F ([1]; Mock, sheet TAS2R4, conc. 0,001 mM): -0.0002133
Δ F/F ([1]; Mock, sheet TAS2R4, conc. 0,003 mM): -6.081e-5
Δ F/F ([1]; Mock, sheet TAS2R14, conc. 0,01 mM): -0.01698
Δ F/F ([1]; Mock, sheet TAS2R14, conc. 0,1 mM): -0.02625
Δ F/F ([1]; Mock, sheet TAS2R14, conc. 0,03 mM): -0.01883
Δ F/F ([1]; Mock, sheet TAS2R14, conc. 0,3 mM): -0.03707
Δ F/F ([1]; Mock, sheet TAS2R14, conc. 0,001 mM): -0.0212
Δ F/F ([1]; Mock, sheet TAS2R14, conc. 1 mM): -0.05126
Δ F/F ([1]; Mock, sheet TAS2R14, conc. 0,003 mM): -0.01715
Δ F/F ([1]; Mock, sheet TAS2R46, conc. 0,01 mM): -0.02275
Δ F/F ([1]; Mock, sheet TAS2R46, conc. 0,1 mM): -0.03044
Δ F/F ([1]; Mock, sheet TAS2R46, conc. 0,03 mM): -0.02768
Δ F/F ([1]; Mock, sheet TAS2R46, conc. 0,3 mM): -0.0463
Δ F/F ([1]; Mock, sheet TAS2R46, conc. 0,001 mM): -0.02143
Δ F/F ([1]; Mock, sheet TAS2R46, conc. 1 mM): -0.07983
Δ F/F ([1]; Mock, sheet TAS2R46, conc. 0,003 mM): -0.02717
Δ F/F ([1]; Mock, sheet Tas2r105, conc. 0,01 mM): -0.01859
Δ F/F ([1]; Mock, sheet Tas2r105, conc. 0,1 mM): -0.0309
Δ F/F ([1]; Mock, sheet Tas2r105, conc. 0,03 mM): -0.02007
Δ F/F ([1]; Mock, sheet Tas2r105, conc. 0,3 mM): -0.05122
Δ F/F ([1]; Mock, sheet Tas2r105, conc. 0,001 mM): -0.01558
Δ F/F ([1]; Mock, sheet Tas2r105, conc. 1 mM): -0.09069
Δ F/F ([1]; Mock, sheet Tas2r105, conc. 0,003 mM): -0.01717
Δ F/F ([1]; Mock, sheet Tas2r108, conc. 0,01 mM): -0.01889
Δ F/F ([1]; Mock, sheet Tas2r108, conc. 0,1 mM): -0.02753
Δ F/F ([1]; Mock, sheet Tas2r108, conc. 0,03 mM): -0.02185
Δ F/F ([1]; Mock, sheet Tas2r108, conc. 0,3 mM): -0.04768
Δ F/F ([1]; Mock, sheet Tas2r108, conc. 0,001 mM): -0.0151
Δ F/F ([1]; Mock, sheet Tas2r108, conc. 1 mM): -0.06489
Δ F/F ([1]; Mock, sheet Tas2r108, conc. 0,003 mM): -0.01714
Δ F/F ([1]; Mock, sheet Tas2r117, conc. 0,01 mM): -0.001257
Δ F/F ([1]; Mock, sheet Tas2r117, conc. 0,1 mM): -0.001605
Δ F/F ([1]; Mock, sheet Tas2r117, conc. 0,03 mM): -0.001376
Δ F/F ([1]; Mock, sheet Tas2r117, conc. 0,3 mM): 0.0005119
Δ F/F ([1]; Mock, sheet Tas2r117, conc. 0,0003 mM): -0.001061
Δ F/F ([1]; Mock, sheet Tas2r117, conc. 0,001 mM): -0.001339
Δ F/F ([1]; Mock, sheet Tas2r117, conc. 0,003 mM): -0.001948
Δ F/F ([1]; conc. 0,01 mM, Mock (sheet TAS2R1)): -0.001476
Δ F/F ([1]; conc. 0,1 mM, Mock (sheet TAS2R1)): -0.002206
Δ F/F ([1]; conc. 0,03 mM, Mock (sheet TAS2R1)): -0.001334
Δ F/F ([1]; conc. 0,3 mM, Mock (sheet TAS2R1)): 0.00174
Δ F/F ([1]; conc. 0,001 mM, Mock (sheet TAS2R1)): -0.0005627
Δ F/F ([1]; conc. 0,003 mM, Mock (sheet TAS2R1)): 0.0001343
